The pEC50 is the EC50 on a negative log10 scale, so that one unit is a factor of ten.

The experiment has as its target T1, human CRHR2b (Homo sapiens, UniProt Q13324).
T1 construct: expressed in transfected cells; host or cells: Chinese Hamster Ovary (CHO) cells, transient transfection
T1 sequence (Q13324 1-438 isoform Q13324-2): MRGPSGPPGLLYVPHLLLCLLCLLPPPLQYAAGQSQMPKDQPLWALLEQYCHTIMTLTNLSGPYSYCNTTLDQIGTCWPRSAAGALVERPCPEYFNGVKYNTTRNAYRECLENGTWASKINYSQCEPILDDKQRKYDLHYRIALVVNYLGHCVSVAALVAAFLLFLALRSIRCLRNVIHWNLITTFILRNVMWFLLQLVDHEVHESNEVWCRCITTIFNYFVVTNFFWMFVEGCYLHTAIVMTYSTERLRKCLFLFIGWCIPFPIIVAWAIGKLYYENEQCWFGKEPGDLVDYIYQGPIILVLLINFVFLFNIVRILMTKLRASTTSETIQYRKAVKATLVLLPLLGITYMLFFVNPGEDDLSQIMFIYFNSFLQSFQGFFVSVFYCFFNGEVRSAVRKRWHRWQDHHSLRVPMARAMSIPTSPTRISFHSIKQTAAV
Kind of experiment: human CRHR2b cell-based cAMP assay. The note with it: cAMP assay; Table 26, compounds of Example 9; read-out: hCRHR2b Average EC50. Summed up:
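ED50 values are means ± SEM over several runs, curve-fitted from cAMP in pmol, calibrated against unlabeled-cAMP standards. Detection was HTRF competition, ratio 665/620 nm, after 30 min agonist exposure at 37 °C.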
On the technique in general: cAMP levels reflect the balance of adenylyl cyclase and phosphodiesterase activity.

pEC50: −log10 of the molar value. Starred links: 1 amine or outer side, 2 acyl side, 3 side chain; linkers in the order of their positions; H or OH if unused. Non-standard residues stand in square brackets, D forms with d. Residues, ends and D or L forms follow the SMILES beside them. Groups on a side chain read outwards from the residue. *: point of attachment. C20 diacid = O=C(O)CCCCCCCCCCCCCCCCCCC(=O)*; C18 diacid = O=C(O)CCCCCCCCCCCCCCCCC(=O)*; γGlu = O=C(O)[C@H](CCC(=O)[*:2])N[*:1]; NMeI = CC[C@H](C)[C@H](NC)C(=O)O; AEEA = NCCOCCOCC(=O)O

Consider `CC[C@H](C)[C@H](N)C(=O)N[C@H](C(=O)N[C@@H](CC(C)C)C(=O)N[C@@H](CO)C(=O)N[C@@H](CC(C)C)C(=O)N[C@@H](CC(=O)O)C(=O)N[C@H](C(=O)N1CCC[C@H]1C(=O)N[C@H](C(=O)NCC(=O)N[C@@H](CC(C)C)C(=O)N[C@@H](CC(C)C)C(=O)N[C@@H](CCC(N)=O)C(=O)N[C@H](C(=O)N[C@@H](CC(C)C)C(=O)N[C@@H](CC(C)C)C(=O)N[C@@H](CCC(=O)O)C(=O)N[C@@H](CCC(N)=O)C(=O)N[C@@H](CCC(=O)O)C(=O)N[C@@H](CCCCN)C(=O)N[C@@H](CCC(N)=O)C(=O)N[C@@H](CCC(=O)O)C(=O)N[C@@H](CCCCN)C(=O)N[C@@H](CCC(=O)O)C(=O)N[C@@H](CCCCN)C(=O)N[C@@H](CCC(N)=O)C(=O)N[C@@H](CCC(N)=O)C(=O)N[C@@H](C)C(=O)N[C@@H](CCCCNC(=O)COCCOCCNC(=O)COCCOCCNC(=O)CC[C@H](NC(=O)CC[C@H](NC(=O)CCCCCCCCCCCCCCCCC(=O)O)C(=O)O)C(=O)O)C(=O)N[C@@H](CCC(=O)O)C(=O)N[C@@H](CC(N)=O)C(=O)N[C@@H](C)C(=O)N[C@@H](CCC(N)=O)C(=O)N[C@H](C(=O)N[C@@H](CC(C)C)C(=O)N[C@@H](C)C(=O)N[C@@H](CCC(N)=O)C(=O)N[C@H](C(N)=O)C(C)C)[C@@H](C)CC)[C@@H](C)CC)[C@@H](C)CC)C(C)C)C(C)C` [Compound 55] (H-IVLSLDVPIGLLQILLEQEKQEKEKQQAK([AEEA-AEEA-γGlu-γGlu-C18 diacid])ENAQILAQV-NH2), for which the pEC50 was 8.82.
For `CC[C@H](C)[C@H](NC)C(=O)N[C@H](C(=O)N[C@@H](CC(C)C)C(=O)N[C@@H](CO)C(=O)N[C@@H](CC(C)C)C(=O)N[C@@H](CC(=O)O)C(=O)N[C@H](C(=O)N1CCC[C@H]1C(=O)N[C@H](C(=O)NCC(=O)N[C@@H](CC(C)C)C(=O)N[C@@H](CC(C)C)C(=O)N[C@@H](CCC(N)=O)C(=O)N[C@H](C(=O)N[C@@H](CC(C)C)C(=O)N[C@@H](CC(C)C)C(=O)N[C@@H](CCC(=O)O)C(=O)N[C@@H](CCC(N)=O)C(=O)N[C@@H](CCC(=O)O)C(=O)N[C@@H](CCCCN)C(=O)N[C@@H](CCC(N)=O)C(=O)N[C@@H](CCC(=O)O)C(=O)N[C@@H](CCCCN)C(=O)N[C@@H](CCC(=O)O)C(=O)N[C@@H](CCCCN)C(=O)N[C@@H](CCC(N)=O)C(=O)N[C@@H](CCC(N)=O)C(=O)N[C@@H](C)C(=O)N[C@@H](CCCCNC(=O)COCCOCCNC(=O)CC[C@H](NC(=O)CC[C@H](NC(=O)CCCCCCCCCCCCCCCCCCC(=O)O)C(=O)O)C(=O)O)C(=O)N[C@@H](CCC(=O)O)C(=O)N[C@@H](CC(N)=O)C(=O)N[C@@H](C)C(=O)N[C@@H](CCC(=O)O)C(=O)N[C@H](C(=O)N[C@@H](CC(C)C)C(=O)N[C@@H](C)C(=O)N[C@@H](CCC(N)=O)C(=O)N[C@H](C(N)=O)C(C)C)[C@@H](C)CC)[C@@H](C)CC)[C@@H](C)CC)C(C)C)C(C)C` [Compound 57] (H-[NMeI]VLSLDVPIGLLQILLEQEKQEKEKQQAK([AEEA-γGlu-γGlu-C20 diacid])ENAEILAQV-NH2) the value was 8.44; for `CC[C@H](C)[C@H](NC)C(=O)N[C@H](C(=O)N[C@@H](CC(C)C)C(=O)N[C@@H](CO)C(=O)N[C@@H](CC(C)C)C(=O)N[C@@H](CC(=O)O)C(=O)N[C@H](C(=O)N1CCC[C@H]1C(=O)N[C@H](C(=O)NCC(=O)N[C@@H](CC(C)C)C(=O)N[C@@H](CC(C)C)C(=O)N[C@@H](CCC(N)=O)C(=O)N[C@H](C(=O)N[C@@H](CC(C)C)C(=O)N[C@@H](CC(C)C)C(=O)N[C@@H](CCC(=O)O)C(=O)N[C@@H](CCC(N)=O)C(=O)N[C@@H](CCC(=O)O)C(=O)N[C@@H](CCCCN)C(=O)N[C@@H](CCC(N)=O)C(=O)N[C@@H](CCC(=O)O)C(=O)N[C@@H](CCCCN)C(=O)N[C@@H](CCC(=O)O)C(=O)N[C@@H](CCCCN)C(=O)N[C@@H](CCC(N)=O)C(=O)N[C@@H](CCC(N)=O)C(=O)N[C@@H](C)C(=O)N[C@@H](CCCCNC(=O)CC[C@H](NC(=O)CC[C@H](NC(=O)CCCCCCCCCCCCCCCCCCC(=O)O)C(=O)O)C(=O)O)C(=O)N[C@@H](CCC(=O)O)C(=O)N[C@@H](CC(N)=O)C(=O)N[C@@H](C)C(=O)N[C@@H](CCC(=O)O)C(=O)N[C@H](C(=O)N[C@@H](CC(C)C)C(=O)N[C@@H](C)C(=O)N[C@@H](CCC(N)=O)C(=O)N[C@H](C(N)=O)C(C)C)[C@@H](C)CC)[C@@H](C)CC)[C@@H](C)CC)C(C)C)C(C)C` [Compound 58] (H-[NMeI]VLSLDVPIGLLQILLEQEKQEKEKQQAK([γGlu-γGlu-C20 diacid])ENAEILAQV-NH2), 8.42.
For `CC[C@H](C)[C@H](NC)C(=O)N[C@H](C(=O)N[C@@H](CC(C)C)C(=O)N[C@@H](CO)C(=O)N[C@@H](CC(C)C)C(=O)N[C@@H](CC(=O)O)C(=O)N[C@H](C(=O)N1CCC[C@H]1C(=O)N[C@H](C(=O)NCC(=O)N[C@@H](CC(C)C)C(=O)N[C@@H](CC(C)C)C(=O)N[C@@H](CCC(N)=O)C(=O)N[C@H](C(=O)N[C@@H](CC(C)C)C(=O)N[C@@H](CC(C)C)C(=O)N[C@@H](CCC(=O)O)C(=O)N[C@@H](CCC(N)=O)C(=O)N[C@@H](CCC(=O)O)C(=O)N[C@@H](CCCCN)C(=O)N[C@@H](CCC(N)=O)C(=O)N[C@@H](CCC(=O)O)C(=O)N[C@@H](CCCCN)C(=O)N[C@@H](CCC(=O)O)C(=O)N[C@@H](CCCCN)C(=O)N[C@@H](CCC(N)=O)C(=O)N[C@@H](CCC(N)=O)C(=O)N[C@@H](C)C(=O)N[C@@H](CCCCNC(=O)CC[C@H](NC(=O)COCCOCCNC(=O)CC[C@H](NC(=O)CC[C@H](NC(=O)CCCCCCCCCCCCCCCCCCC(=O)O)C(=O)O)C(=O)O)C(=O)O)C(=O)N[C@@H](CCC(=O)O)C(=O)N[C@@H](CC(N)=O)C(=O)N[C@@H](C)C(=O)N[C@@H](CCC(=O)O)C(=O)N[C@H](C(=O)N[C@@H](CC(C)C)C(=O)N[C@@H](C)C(=O)N[C@@H](CCC(N)=O)C(=O)N[C@H](C(N)=O)C(C)C)[C@@H](C)CC)[C@@H](C)CC)[C@@H](C)CC)C(C)C)C(C)C` [Compound 59] (H-[NMeI]VLSLDVPIGLLQILLEQEKQEKEKQQAK([γGlu-AEEA-γGlu-γGlu-C20 diacid])ENAEILAQV-NH2) the value was 8.58; for `CC[C@H](C)[C@H](NC)C(=O)N[C@H](C(=O)N[C@@H](CC(C)C)C(=O)N[C@@H](CO)C(=O)N[C@@H](CC(C)C)C(=O)N[C@@H](CC(=O)O)C(=O)N[C@H](C(=O)N1CCC[C@H]1C(=O)N[C@H](C(=O)NCC(=O)N[C@@H](CC(C)C)C(=O)N[C@@H](CC(C)C)C(=O)N[C@@H](CCC(N)=O)C(=O)N[C@H](C(=O)N[C@@H](CC(C)C)C(=O)N[C@@H](CC(C)C)C(=O)N[C@@H](CCC(=O)O)C(=O)N[C@@H](CCC(N)=O)C(=O)N[C@@H](CCC(=O)O)C(=O)N[C@@H](CCCCN)C(=O)N[C@@H](CCC(N)=O)C(=O)N[C@@H](CCC(=O)O)C(=O)N[C@@H](CCCCN)C(=O)N[C@@H](CCC(=O)O)C(=O)N[C@@H](CCCCN)C(=O)N[C@@H](CCC(N)=O)C(=O)N[C@@H](CCC(N)=O)C(=O)N[C@@H](C)C(=O)N[C@@H](CCCCNC(=O)CC[C@H](NC(=O)COCCOCCNC(=O)COCCOCCNC(=O)CC[C@H](NC(=O)CC[C@H](NC(=O)CCCCCCCCCCCCCCCCCCC(=O)O)C(=O)O)C(=O)O)C(=O)O)C(=O)N[C@H](C(=O)N[C@@H](CC(N)=O)C(=O)N[C@@H](C)C(=O)N[C@@H](CCC(N)=O)C(=O)N[C@H](C(=O)N[C@@H](CC(C)C)C(=O)N[C@@H](C)C(=O)N[C@@H](CCC(N)=O)C(=O)N[C@H](C(N)=O)C(C)C)[C@@H](C)CC)[C@@H](C)O)[C@@H](C)CC)[C@@H](C)CC)C(C)C)C(C)C` [Compound 60] (H-[NMeI]VLSLDVPIGLLQILLEQEKQEKEKQQAK([γGlu-AEEA-AEEA-γGlu-γGlu-C20 diacid])TNAQILAQV-NH2), 8.59.

For the origin of these results see patent US10894817B2, “Fatty acid modified urocortin-2 analogs for the treatment of diabetes and chronic kidney disease” (priority 2016, dated 2021).
